Data taken from patent US20220324803A1 (Teon Therapeutics, Inc., priority 2019, published 2022).

How the values were obtained:
[1] = system: murine mammary tumour cells; settings: mouse, in vivo; cited from earlier work
human NSCLC = settings: in vitro; cited from earlier work
[2] = target: T1, human Prostanoid EP4 Receptor (EP4) (Homo sapiens, UniProt P35408); test: Prostanoid EP4 FLIPR assay (calcium flux, PGE2 addition); format: cell-based; settings: HEK293 cells transfected with human EP4, Fluo-4 calcium dye
T1 construct: expressed in transfected cells; host or cells: HEK293 (G418 selection); membranes prepared by differential centrifugation
Experimental: (§1) HEK293 cells transfected with human Prostanoid EP4 Receptor (EP4) or CHO cells transfected with human Prostanoid EP2 Receptor (EP2) are maintained in DMEM supplemented with L-Glutamine, 10% FBS and 300 μg/ml G418. Cells are plated at 20,000 cells/well in black 384-well Poly-D-Lysine protein coating plate and incubated at 37° C., 5% CO2 for 24 h. Prior to the assay, calcium-sensitive dye Fluo-4 Direct™ (Molecular Devices) is reconstituted according to manufacturer instructions. The reconstituted dye was diluted in assay buffer (1× HBSS, 20 mM HEPES, and 2.5 mM Probenicid, pH 7.4). Growth media is removed and 20 μl of this diluted dye is added to each well at a final concentration of 2 μM. Plates are incubated for 50 min at 37° C. 5% C02 and 10 min at RT after dye addition. Testing compounds are diluted with DMSO to make 10-point 4-fold serial dilution. After the pre-treatment incubation, fluorescence intensity is measured on a FlexStation II fluorometric imaging plate reader (Molecular Devices). Relative fluorescence units (RFU) are measured before (20 readings) and after (40 readings) the PGE2 addition for a total 60 sec read time (Excitation=485 nm, Emission=525 nm). Data are analyzed and IC50 is calculated using GraphPad Prism 5 and the model “log(inhibitor) vs. response—Variable slope”.
(§2) Illustrative data for representative compounds are described in Table 2.

[3] = target: T1, human Prostanoid EP4 Receptor (EP4); test: Prostanoid EP4 binding assay (3H-prostaglandin E2 displacement, cell membranes); settings: HEK293 cell membranes with human EP4, 3H-prostaglandin E2, 24° C.
[4] = target: T2, human Prostanoid EP2 Receptor (EP2) (Homo sapiens, UniProt P43116); test: Prostanoid EP2 FLIPR assay (calcium flux, PGE2 addition); format: cell-based; settings: CHO cells transfected with human EP2, Fluo-4 calcium dye
T2 construct: expressed in transfected cells; host or cells: CHO (G418 selection)
Experimental: as §1, §2

[5] = system: human inflammatory breast cancer cells; settings: Robertson et al. 2008; cited from earlier work
[6] = system: aberrant crypt foci and intestinal polyps; settings: mouse disease model; Mutoh et al. 2002; cited from earlier work
[7] = system: castration-resistant prostate cancer; settings: mouse xenograft disease model; Terada et al. 2010; cited from earlier work

T1 sequence (P35408 whole entry): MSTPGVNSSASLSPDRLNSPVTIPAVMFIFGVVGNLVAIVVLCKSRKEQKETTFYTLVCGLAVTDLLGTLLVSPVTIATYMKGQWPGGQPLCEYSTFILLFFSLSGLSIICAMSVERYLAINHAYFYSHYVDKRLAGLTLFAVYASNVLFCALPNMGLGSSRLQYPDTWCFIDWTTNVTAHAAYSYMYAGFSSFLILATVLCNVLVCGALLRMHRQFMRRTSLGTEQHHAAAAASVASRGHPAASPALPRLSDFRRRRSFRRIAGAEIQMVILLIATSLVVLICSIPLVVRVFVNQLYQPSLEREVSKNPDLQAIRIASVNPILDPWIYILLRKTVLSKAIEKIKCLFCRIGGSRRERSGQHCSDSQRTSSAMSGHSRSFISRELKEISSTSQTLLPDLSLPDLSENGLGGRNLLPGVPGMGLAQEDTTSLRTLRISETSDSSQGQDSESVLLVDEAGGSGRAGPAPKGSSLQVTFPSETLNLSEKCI
T2 sequence (P43116 whole entry): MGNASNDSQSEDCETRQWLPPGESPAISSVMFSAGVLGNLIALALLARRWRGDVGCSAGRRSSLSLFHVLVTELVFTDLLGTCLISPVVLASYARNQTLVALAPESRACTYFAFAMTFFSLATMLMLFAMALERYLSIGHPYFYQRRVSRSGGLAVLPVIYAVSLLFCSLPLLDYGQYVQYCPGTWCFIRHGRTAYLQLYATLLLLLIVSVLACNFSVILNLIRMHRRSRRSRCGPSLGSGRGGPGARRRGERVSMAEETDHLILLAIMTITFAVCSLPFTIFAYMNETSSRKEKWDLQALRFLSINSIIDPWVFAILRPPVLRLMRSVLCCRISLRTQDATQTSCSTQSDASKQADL

In the case of `O=C(O)CC/C=C\CC[C@H]1[C@H](N2CCOCC2)C(=O)C[C@H]1OCc1ccc(-c2ccccc2)cc1` [AH-23848], the “metastasis of murine mammary tumour cells” value [1] is given as “reduced metastasis” and the “tumorigenic effects of PGE2 on human NSCLC growth” value (human NSCLC) is given as “successfully inhibited”.

Work on `O=C(O)CC12CC(NC(=O)c3cnn4cccc(Cc5ccc(C(F)(F)F)cc5)c34)(C1)C2` [Compound 15, 2-[3-[[4-[[4-(trifluoromethyl)phenyl]methyl]pyrazolo[1,5-a]pyridine-3-carbonyl]amino]-1-bicyclo[1.1.1]pentanyl]acetic acid] yielded an IC50 [2] of less than 100 nM, a Ki [3] of less than 100 nM and an IC50 [4] greater than 1000 nM.

In the case of `CCOc1c2c(c(OCC)c3ccccc13)C(=O)N(c1ccc(CC(=O)NS(=O)(=O)c3ccccc3)cc1)C2` [GW-627368X], the “proliferation and invasion of human inflammatory breast cancer cells” value [5] is given as “selectively inhibited both proliferation and invasion”.

In the case of `CC(C(=O)Nc1ccccc1Cc1ccccc1C(=O)O)c1cccc2ccccc12` (stereo not drawn) [ONO-AE2-227], the “formation of aberrant crypt foci and intestinal polyps” value [6] is given as “reduced the formation of aberrant crypt foci and intestinal polyps”.

In the case of `CC(C(=O)Nc1cc(C#N)ccc1CCCC(=O)O)c1ccc(F)c2ccccc12` (stereo not drawn) [ONO-AE3-208], the “metastasis of murine mammary tumour cells” value [1] is given as “reduced metastasis” and the “castration-resistant prostate cancer progression” value [7] is given as “suppressed castration-resistant prostate cancer progression”.
